From publication PMC11887051, “Discovery of ONO-2920632 (VU6011887): A Highly Selective and CNS Penetrant TREK-2 (TWIK-Related K+ Channel 2) Preferring Activator In Vivo Tool Compound” (ACS Chemical Neuroscience, 2025)
Like-named read-outs stand apart in the source and are kept apart here.

Columns and labels:
TREK-2 = target: T1, TREK-2 (Homo sapiens, UniProt P57789); assay: manual patch clamp (MPC) assay, TREK-2, species not stated; format: cell-based
T1 sequence (P57789 1-538): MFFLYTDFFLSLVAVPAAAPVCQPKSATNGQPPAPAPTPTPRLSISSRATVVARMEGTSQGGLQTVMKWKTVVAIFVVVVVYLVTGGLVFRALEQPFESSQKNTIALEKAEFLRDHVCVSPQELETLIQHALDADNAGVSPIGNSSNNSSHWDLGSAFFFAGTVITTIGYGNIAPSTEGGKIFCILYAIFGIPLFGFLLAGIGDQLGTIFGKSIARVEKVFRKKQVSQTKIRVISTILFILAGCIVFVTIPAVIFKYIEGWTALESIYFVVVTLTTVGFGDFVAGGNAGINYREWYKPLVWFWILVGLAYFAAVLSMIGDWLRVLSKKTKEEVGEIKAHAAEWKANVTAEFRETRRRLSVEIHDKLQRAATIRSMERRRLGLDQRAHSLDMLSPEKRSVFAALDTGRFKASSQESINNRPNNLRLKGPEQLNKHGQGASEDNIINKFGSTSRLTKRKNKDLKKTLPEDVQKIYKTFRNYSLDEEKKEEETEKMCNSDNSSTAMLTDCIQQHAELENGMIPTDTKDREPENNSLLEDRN

Glutamate, Kainate = assay: Eurofins Lead Profiling radioligand binding; set-up: species or system Rat; conditions: title: 30 μM
Imidazoline I2, Central = assay: Eurofins Lead Profiling radioligand binding; set-up: species or system Rat; conditions: title: 30 μM
[1] = system: Glycine, Strychnine-Sensitive; assay: Eurofins Lead Profiling radioligand binding; set-up: species or system Rat; conditions: title: 30 μM
Adrenergic α1D = Adrenergic α1D (Homo sapiens, UniProt P25100); assay: Eurofins Lead Profiling radioligand binding; conditions: title: 30 μM
Chain of Adrenergic α1D (P25100 whole entry): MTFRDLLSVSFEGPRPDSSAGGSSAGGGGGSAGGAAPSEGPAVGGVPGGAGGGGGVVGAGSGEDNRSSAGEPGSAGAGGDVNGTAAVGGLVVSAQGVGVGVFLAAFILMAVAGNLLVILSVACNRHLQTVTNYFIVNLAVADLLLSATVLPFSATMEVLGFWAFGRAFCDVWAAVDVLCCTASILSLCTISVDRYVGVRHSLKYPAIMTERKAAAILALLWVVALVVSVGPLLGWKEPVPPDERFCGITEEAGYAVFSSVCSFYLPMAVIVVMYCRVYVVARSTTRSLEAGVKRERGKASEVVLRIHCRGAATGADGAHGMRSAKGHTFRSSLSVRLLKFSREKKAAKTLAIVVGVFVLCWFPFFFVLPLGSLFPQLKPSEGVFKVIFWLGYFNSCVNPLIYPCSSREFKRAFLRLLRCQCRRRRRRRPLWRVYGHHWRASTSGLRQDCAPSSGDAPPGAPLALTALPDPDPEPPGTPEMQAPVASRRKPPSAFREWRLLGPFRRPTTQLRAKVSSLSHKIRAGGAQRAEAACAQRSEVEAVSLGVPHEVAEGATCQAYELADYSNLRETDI

Adenosine A2A = Adenosine A2A (Homo sapiens, UniProt P29274); assay: Eurofins Lead Profiling radioligand binding; conditions: title: 30 μM
Chain of Adenosine A2A (P29274 whole entry): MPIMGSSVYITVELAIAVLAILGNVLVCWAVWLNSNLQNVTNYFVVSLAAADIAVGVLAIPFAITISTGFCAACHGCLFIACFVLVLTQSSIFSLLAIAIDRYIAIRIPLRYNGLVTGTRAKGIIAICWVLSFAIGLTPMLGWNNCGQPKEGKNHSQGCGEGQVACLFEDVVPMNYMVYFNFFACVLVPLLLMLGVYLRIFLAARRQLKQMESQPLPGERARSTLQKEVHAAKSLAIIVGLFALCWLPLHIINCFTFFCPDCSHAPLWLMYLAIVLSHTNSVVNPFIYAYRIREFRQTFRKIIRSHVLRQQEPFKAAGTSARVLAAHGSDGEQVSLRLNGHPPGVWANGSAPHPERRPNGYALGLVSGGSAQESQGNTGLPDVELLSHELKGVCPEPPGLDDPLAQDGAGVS

Thyroid Hormone = assay: Eurofins Lead Profiling radioligand binding; set-up: species or system Rat; conditions: title: 30 μM
Sodium Channel, Site 2 = assay: Eurofins Lead Profiling radioligand binding; set-up: species or system Rat; conditions: title: 30 μM
Adrenergic α1B = Adrenergic α1B (Rattus norvegicus, UniProt P15823); assay: Eurofins Lead Profiling radioligand binding; conditions: title: 30 μM
Chain of Adrenergic α1B (P15823 whole entry): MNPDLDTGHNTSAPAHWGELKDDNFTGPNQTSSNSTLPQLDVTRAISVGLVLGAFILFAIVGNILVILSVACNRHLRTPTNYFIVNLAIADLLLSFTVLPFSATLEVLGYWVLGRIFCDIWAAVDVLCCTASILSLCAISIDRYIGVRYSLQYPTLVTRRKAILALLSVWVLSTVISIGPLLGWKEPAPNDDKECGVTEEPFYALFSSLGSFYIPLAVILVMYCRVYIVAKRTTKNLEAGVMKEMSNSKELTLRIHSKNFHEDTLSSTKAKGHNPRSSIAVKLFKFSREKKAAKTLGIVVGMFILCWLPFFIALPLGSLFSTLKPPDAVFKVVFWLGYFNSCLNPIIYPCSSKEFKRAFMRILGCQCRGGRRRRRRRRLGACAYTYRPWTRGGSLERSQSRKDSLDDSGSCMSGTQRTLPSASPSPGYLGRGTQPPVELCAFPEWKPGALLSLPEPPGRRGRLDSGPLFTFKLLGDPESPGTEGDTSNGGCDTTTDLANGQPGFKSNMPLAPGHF

[2] = mouse PO PK study (C57BL/6); format: in vivo; conditions: 3 mg/kg PO; for concentration at 2 h: C57BL/6, mouse, po
Protocol: Plasma and brain tissue samples originating from in vivo studies were analyzed by electrospray ionization using an AB Sciex Q-TRAP 5500 (Foster City, CA) that was coupled to a Shimadzu LC-20AD pump (Columbia, MD) and a Leap Technologies CTC PAL auto-sampler (Carrboro, NC). Analytes were separated by gradient elution using a C18 column (3 x 50 mm, 3 mm; Fortis Technologies Ltd, Cheshire, UK) that was thermostated at 40 °C. HPLC mobile phase A was 0.1% formic acid in water (pH unadjusted); mobile phase B was 0.1% formic acid in acetonitrile (pH […]
min, with an isocratic hold for 0.5 min, before transitioning to 10% B over 0.05 min. The column was re-equilibrated (1 min) before the next sample injection. The total run time was 2.55 min, and the HPLC flow rate was 0.5 ml/min. The source temperature was set at 500 °C, and mass spectral analyses were performed using a Turbo-Ion spray source in positive ionization mode (5.0-kV spray voltage) and using multiple-reaction monitoring of transitions specific for the analytes. All data were analyzed using AB Sciex Analyst 1.5.1 software.
Brain plasma concentration ratio (Kp) was calculated by dividing brain concentration by plasma concentration for each animal. Unbound brain to unbound plasma concentration ratio (Kp,uu) is calculated using the following formula: Kp,uu = (Brain ng/g x brain fu)/(plasma ng/ml x plasma fu).
For determination of the plasma concentration-time profile, compounds were formulated in methyl cellulose and administered as a 3 mg/kg PO dose to male C57BL/6 mouse or SD rat (n = 2). For the same determination, compounds were formulated in HP-β-CD and administered as a 0.1 mg/kg IV dose to male beagle dog (n = 2).
Plasma samples originating from in vivo studies were analyzed by electrospray ionization using a Q-TRAP 5500 (AB Sciex) that was coupled to a Prominence UFLC XR (Shimadzu Corporation).
Analytes were separated by gradient elution using a Shim-pack XR-ODS II (2 x 75 mm, 2.2μm, Shimadzu Corporation) that was thermostated at 40 °C. HPLC mobile phase A was 5 mM ammonium acetate containing 0.2% formic acid in water (pH unadjusted); mobile phase B was […]
hold for 1.5 min, before transitioning to 10% B over 0.1 min. The column was re-equilibrated (0.9 min) before the next sample injection. The total run time was 4.0 min, and the HPLC flow rate was 0.5 ml/min. The source temperature was set at 600 °C, and mass spectral analyses were performed using a Turbo-Ion spray source in positive ionization mode and using multiple-reaction

Vanilloid = Vanilloid (Rattus norvegicus, UniProt O35433); assay: Eurofins Lead Profiling radioligand binding; conditions: title: 30 μM
Chain of Vanilloid (O35433 whole entry): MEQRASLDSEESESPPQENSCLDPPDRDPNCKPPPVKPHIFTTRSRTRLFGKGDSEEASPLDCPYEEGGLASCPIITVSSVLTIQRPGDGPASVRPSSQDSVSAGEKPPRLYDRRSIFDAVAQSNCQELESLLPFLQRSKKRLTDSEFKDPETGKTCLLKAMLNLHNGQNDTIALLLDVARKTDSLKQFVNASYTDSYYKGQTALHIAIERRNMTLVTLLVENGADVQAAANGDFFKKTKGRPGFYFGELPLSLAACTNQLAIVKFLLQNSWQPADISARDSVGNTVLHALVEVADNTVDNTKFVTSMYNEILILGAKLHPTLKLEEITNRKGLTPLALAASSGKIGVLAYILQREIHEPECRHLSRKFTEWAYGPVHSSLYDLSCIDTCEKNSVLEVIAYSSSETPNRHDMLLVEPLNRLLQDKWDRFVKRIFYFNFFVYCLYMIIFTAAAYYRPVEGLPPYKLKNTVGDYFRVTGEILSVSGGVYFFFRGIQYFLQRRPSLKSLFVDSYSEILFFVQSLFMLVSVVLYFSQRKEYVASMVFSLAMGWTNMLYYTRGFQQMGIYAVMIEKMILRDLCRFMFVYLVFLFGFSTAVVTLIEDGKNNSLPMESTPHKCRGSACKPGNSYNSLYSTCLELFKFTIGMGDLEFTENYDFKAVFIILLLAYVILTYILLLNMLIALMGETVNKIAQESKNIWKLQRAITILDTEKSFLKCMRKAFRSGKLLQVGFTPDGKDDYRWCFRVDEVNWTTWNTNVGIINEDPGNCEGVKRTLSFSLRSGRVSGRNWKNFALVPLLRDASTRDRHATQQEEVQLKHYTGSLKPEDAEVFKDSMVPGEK

Adenosine A1 = Adenosine A1 (Homo sapiens, UniProt P30542); assay: Eurofins Lead Profiling radioligand binding; conditions: title: 30 μM
[3] = target: Epidermal Growth Factor (EGF) (Homo sapiens, UniProt P00533); assay: Eurofins Lead Profiling radioligand binding; conditions: title: 30 μM
Chain of Epidermal Growth Factor (EGF) (P00533 25-1210): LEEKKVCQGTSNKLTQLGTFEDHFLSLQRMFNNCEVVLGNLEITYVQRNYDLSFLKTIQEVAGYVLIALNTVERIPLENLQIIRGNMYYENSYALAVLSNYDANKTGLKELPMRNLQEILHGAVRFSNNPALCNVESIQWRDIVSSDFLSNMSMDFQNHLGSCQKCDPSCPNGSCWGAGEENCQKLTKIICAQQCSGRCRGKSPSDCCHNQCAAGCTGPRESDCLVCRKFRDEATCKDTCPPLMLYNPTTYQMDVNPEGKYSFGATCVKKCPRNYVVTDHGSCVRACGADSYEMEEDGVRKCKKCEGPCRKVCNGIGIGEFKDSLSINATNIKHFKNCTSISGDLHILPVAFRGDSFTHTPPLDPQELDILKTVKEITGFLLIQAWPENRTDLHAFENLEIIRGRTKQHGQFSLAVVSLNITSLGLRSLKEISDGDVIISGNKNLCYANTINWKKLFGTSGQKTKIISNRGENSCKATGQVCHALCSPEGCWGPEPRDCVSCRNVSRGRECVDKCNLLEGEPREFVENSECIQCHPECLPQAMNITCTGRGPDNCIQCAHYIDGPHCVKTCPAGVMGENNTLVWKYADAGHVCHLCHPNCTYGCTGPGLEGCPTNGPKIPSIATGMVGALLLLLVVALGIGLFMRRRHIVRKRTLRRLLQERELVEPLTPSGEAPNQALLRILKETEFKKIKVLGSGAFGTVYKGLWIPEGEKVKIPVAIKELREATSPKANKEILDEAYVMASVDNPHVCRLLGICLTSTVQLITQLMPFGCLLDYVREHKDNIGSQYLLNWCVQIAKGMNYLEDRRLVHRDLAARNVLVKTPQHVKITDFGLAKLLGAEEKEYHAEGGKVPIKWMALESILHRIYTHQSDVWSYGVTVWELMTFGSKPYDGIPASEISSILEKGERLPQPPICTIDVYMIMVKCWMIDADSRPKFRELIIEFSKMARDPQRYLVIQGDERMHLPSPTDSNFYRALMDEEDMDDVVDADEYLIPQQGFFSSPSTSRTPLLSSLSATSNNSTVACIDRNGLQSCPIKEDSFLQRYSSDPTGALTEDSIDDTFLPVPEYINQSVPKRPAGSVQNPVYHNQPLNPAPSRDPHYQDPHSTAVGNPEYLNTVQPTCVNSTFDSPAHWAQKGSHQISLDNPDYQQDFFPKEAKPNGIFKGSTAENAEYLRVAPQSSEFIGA

Ryanodine = assay: Eurofins Lead Profiling radioligand binding; set-up: species or system Rat; conditions: title: 30 μM
Adenosine A3 = Adenosine A3 (Homo sapiens, UniProt P0DMS8); assay: Eurofins Lead Profiling radioligand binding; conditions: title: 30 μM
Chain of Adenosine A3 (P0DMS8 whole entry): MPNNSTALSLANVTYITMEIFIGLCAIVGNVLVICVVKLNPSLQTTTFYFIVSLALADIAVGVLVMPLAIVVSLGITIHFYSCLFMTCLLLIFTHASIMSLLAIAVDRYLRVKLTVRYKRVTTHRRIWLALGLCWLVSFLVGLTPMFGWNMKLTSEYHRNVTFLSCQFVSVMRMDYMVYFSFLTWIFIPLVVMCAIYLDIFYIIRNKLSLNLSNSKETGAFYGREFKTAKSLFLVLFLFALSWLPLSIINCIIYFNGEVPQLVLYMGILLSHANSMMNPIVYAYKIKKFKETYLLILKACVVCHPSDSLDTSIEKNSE

Endothelin ETB = Endothelin ETB (Homo sapiens, UniProt P24530); assay: Eurofins Lead Profiling radioligand binding; conditions: title: 30 μM
Chain of Endothelin ETB (P24530 27-442): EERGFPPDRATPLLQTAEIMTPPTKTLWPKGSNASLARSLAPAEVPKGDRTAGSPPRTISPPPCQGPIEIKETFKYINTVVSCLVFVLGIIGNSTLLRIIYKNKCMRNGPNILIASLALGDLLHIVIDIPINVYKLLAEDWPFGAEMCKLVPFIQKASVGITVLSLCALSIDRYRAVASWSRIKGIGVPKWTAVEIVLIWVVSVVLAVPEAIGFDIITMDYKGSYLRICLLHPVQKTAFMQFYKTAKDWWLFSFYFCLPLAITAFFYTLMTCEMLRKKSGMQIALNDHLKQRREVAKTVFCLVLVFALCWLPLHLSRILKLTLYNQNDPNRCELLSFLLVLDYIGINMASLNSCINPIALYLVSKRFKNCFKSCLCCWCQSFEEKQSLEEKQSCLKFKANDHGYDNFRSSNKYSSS

Adrenergic β1 = Adrenergic β1 (Homo sapiens, UniProt P08588); assay: Eurofins Lead Profiling radioligand binding; conditions: title: 30 μM
Chain of Adrenergic β1 (P08588 whole entry): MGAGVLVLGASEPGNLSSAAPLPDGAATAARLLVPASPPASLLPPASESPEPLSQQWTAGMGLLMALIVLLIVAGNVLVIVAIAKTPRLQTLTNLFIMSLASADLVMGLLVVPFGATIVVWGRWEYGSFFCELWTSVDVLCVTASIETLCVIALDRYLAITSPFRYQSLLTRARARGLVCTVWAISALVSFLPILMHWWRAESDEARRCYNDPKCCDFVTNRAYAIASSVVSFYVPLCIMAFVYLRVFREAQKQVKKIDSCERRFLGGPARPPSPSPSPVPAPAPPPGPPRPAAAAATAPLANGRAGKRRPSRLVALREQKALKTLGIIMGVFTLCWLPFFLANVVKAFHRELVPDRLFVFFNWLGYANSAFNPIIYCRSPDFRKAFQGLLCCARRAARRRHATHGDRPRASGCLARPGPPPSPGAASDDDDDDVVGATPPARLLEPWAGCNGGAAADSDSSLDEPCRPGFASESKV

CS(=O)(=O)Nc1ccc(C(=O)NCc2ccc(Cl)cc2Cl)cc1 [Compound 13]
selectivity for TREK-2 in MPC assay (TREK-2; TREK-2 over TREK-1, manual patch clamp): ~8 fold
EC50 (TREK-2; manual patch clamp): 0.95 µM
Emax (TREK-2; manual patch clamp): 126%

O=C(NCc1ccc(OC(F)(F)F)cc1F)c1ccc2ncnn2c1 [Compound 19b]
% Inhibition at 10 µM (Glutamate, Kainate): 13%
% Inhibition at 10 µM (Imidazoline I2, Central): 2%
% Inhibition at 10 µM [1]: -16%
inhibition at 10 µM (Adrenergic α1D): 4%
inhibition (Adenosine A2A): 10%
% Inhibition at 10 µM (Thyroid Hormone): 9%
% Inhibition at 10 µM (Sodium Channel, Site 2): 15%
inhibition at 10 µM (Adrenergic α1B): 6%
total brain concentration ([2]; 2 h, 3 mg/kg): ~3 µM
concentration at 2 h ([2]; male, CSF, 3 mg/kg, 2 h, read-out: CSF level): 220 nM
concentration at 2 h ([2]; male, brain, 3 mg/kg, 2 h, read-out: free brain level): 920 nM
concentration at 2 h ([2]; male, brain, 3 mg/kg, 2 h, read-out: total brain concentration): 3200 nM
Cmax ([2]; male, plasma, C57BL/6 mice): 10500 nM
Tmax ([2]; male, plasma, C57BL/6 mice): 3.8 h
half-life ([2]; male, plasma, C57BL/6 mice): 19 h
inhibition (Vanilloid): -8%
inhibition (Adenosine A1): 14%
inhibition [3]: 2%
% Inhibition at 10 µM (Ryanodine): 6%
inhibition (Adenosine A3): 21%
inhibition at 10 µM (Endothelin ETB): 4%
inhibition (Adrenergic β1): 9%
